Tested on: HBV
Assay: in vitro validation of anti-HBV capacity (IC50)
Format: cell-based
Conditions: Hepatitis B virus, read-out: IC50, In Vitro Validation
From the text: (§1) Chronic hepatitis B caused by hepatitis B virus (HBV) is a kind of serious disease. HBV inhibitory drugs are developed from a variety of compounds, and to further explore whether anti-HBV compounds are potentially promising for research, it is necessary to validate their anti-HBV capacity (IC50) and HepG2 hepatocytotoxicity (CC50). We used compounds screened with the fields of target name and target tissue from the CHEMBL database as training data and set the HBV (IC50) concentration and hepatotoxicity concentration (CC50) thresholds at 20 μM (the smaller the IC50 value; the more […]) and 100 μM (higher CC50 concentration indicates lower toxicity), respectively, to convert the compound activity data against the target into binary data for prediction. To validate the reliability of the SG-ATT model, we also used in vitro validation to test the model on IC50 and CC50 to predict the properties of the compounds. Throughout the in vitro validation, we tested the activity data of 100 compounds for IC50 and CC50.
(§2) We counted the model prediction results and listed the top 10 compounds ranked using μM prediction size. The first represents the largest μM, and the 10th represents the smallest μM.
`O=C(N[C@H](CO)Cc1ccccc1)/C(NC(=O)c1ccccc1)=C(/Br)c1ccc(Br)cc1` [Br/C(C1=CC=C(Br)C=C1)=C(NC(C2=CC=CC=C2)=O)/ C(N[C@@H](CC3=CC=CC=C3)CO)=O] showed an IC50 of 4.45 µM.
In the case of `O=C(N[C@H](CO)Cc1ccccc1)/C(NC(=O)c1ccccc1)=C(/Br)c1ccccc1` [Br/C(C1=CC=CC=C1)=C(NC(C2=CC=CC=C2)=O)/ C(N[C@H](CO)CC3=CC=CC=C3)=O], the IC50 is reported as 3.86 µM.
Work on `O=C(N[C@H](CO)Cc1ccccc1)/C(NC(=O)c1ccccc1)=C(/Br)c1ccccc1Cl` [Br/C(C1=CC=CC=C1Cl)=C(NC(C2=CC=CC=C2)=O)/ C(N[C@@H](CC3=CC=CC=C3)CO)=O] yielded an IC50 of 1.88 µM.
For `Cc1cccc(/C=C(/NC(=O)c2ccccc2)C(=O)N[C@H](CO)Cc2ccccc2)c1` [O=C(N[C@H](CO)CC1=CC=CC=C1)/C(NC(C2=CC=CC=C2) =O)=C\C3=CC=CC(C)=C3], the IC50 was > 20 µM.
With `O=C(N[C@H](CO)Cc1ccccc1)/C(=C\c1ccccc1Br)NC(=O)c1ccccc1` [O=C(N[C@H](CO)CC1=CC=CC=C1)/C(NC(C2=CC=CC=C2)=O) =C\C3=CC=CC=C3Br] the IC50 was > 20 µM.
With `O=C(N[C@H](CO)Cc1ccccc1)/C(=C\c1ccccc1Cl)NC(=O)c1ccccc1` [O=C(N[C@H](CO)CC1=CC=CC=C1)/C(NC(C2=CC=CC=C2)=O) =C\C3=CC=CC=C3Cl] the IC50 was > 20 µM.

Same assay, conditions: Hepatitis B virus; anti-HBV capacity; top 10 compounds ranked by SG-ATT prediction; classification threshold 20 μM; read-out: IC50, In Vitro Validation
With `COc1ccccc1/C(Br)=C(/NC(=O)c1ccc([N+](=O)[O-])cc1)C(=O)N[C@@H](CO)C(C)C` [Br/C(C1=CC=CC=C1OC)=C(NC(C2=CC=C([N+]([O-]) =O)C=C2)=O)/C(N[C@@H](CO)C(C)C)=O] the IC50 was 2.06 µM.
With `CCN(CC)CCOc1ccc2nc(SCc3ccccc3OC)n(Cc3cccs3)c(=O)c2c1` [O=C1C2=CC(OCCN(CC)CC)=CC=C2N=C (SCC3=C(OC)C=CC=C3)N1CC4=CC=CS4] the IC50 was 1.93 µM.
In the case of `O=C(N[C@@H](Cc1ccccc1)C(=O)N1CCCCC1)c1ccccc1` [O=C(N1CCCCC1)[C@@H](NC(C2=CC=CC=C2) =O)CC3=CC=CC=C3], the IC50 is reported as > 20 µM.
With `O=C(N[C@H](CO)Cc1ccccc1)/C(=C\c1ccccc1)NC(=O)c1ccccc1F` [O=C(N[C@H](CO)CC1=CC=CC=C1)/C(NC(C2=C(F) C=CC=C2)=O)=C\C3=CC=CC=C3] the IC50 was > 20 µM.

Tested on: not listed separately
Assay: in vitro validation of HepG2 hepatocytotoxicity (CC50)
Format: cell-based
Conditions: human, HepG2 cells, top 10 compounds ranked by SG-ATT prediction, classification threshold 100 μM
From the text: as §1, §2
For `O=C(N/C(C(=O)N1CCCCC1)=C(\Br)c1nccs1)c1ccc(F)cc1` [O=C(N/C(C(N1CCCCC1)=O)=C(Br)/C2=NC=CS2) C(C=C3)=CC=C3F], the CC50 was > 100 µM.
In the case of `CC(C)C(CO)NC(=O)[C@H](Cc1ccc(OCCN(C)C)cc1)NC(=O)c1ccccc1` (some centres unmarked) [O=C(NC(CO)C(C)C)[C@@H](NC(C1=CC=CC=C1)=O)CC2=CC=C(OCCN(C)C)C=C2], the CC50 is reported as 89.1 µM.

Same assay, conditions: human, top 10 compounds ranked by SG-ATT prediction, classification threshold 100 μM
In the case of `N#Cc1ccc(/C(Br)=C(/NC(=O)c2ccccc2)C(=O)N[C@H](CO)Cc2ccccc2)cc1` [Br/C(C1=CC=C(C#N)C=C1)=C(NC(C2=CC=CC=C2)=O)/ C(N[C@@H](CC3=CC=CC=C3)CO)=O], the CC50 is reported as > 100 µM.
In the case of `O=C(N[C@H](CO)Cc1ccccc1)/C(NC(=O)c1ccccc1)=C(/Br)c1ccc(O)cc1` [Br/C(C1=CC=C(O)C=C1)=C(NC(C2=CC=CC=C2)=O)/ C(N[C@H](CO)CC3=CC=CC=C3)=O], the CC50 is reported as > 100 µM.
With `O=C(N[C@H](CO)Cc1ccccc1)/C(NC(=O)c1ccccc1)=C(/Br)c1ccccc1Br` [Br/C(C1=CC=CC=C1Br)=C(NC(C2=CC=CC=C2)=O)/ C(N[C@@H](CC3=CC=CC=C3)CO)=O] the CC50 was > 100 µM.
`COc1ccccc1/C(Br)=C(/NC(=O)c1ccc([N+](=O)[O-])cc1)C(=O)N[C@@H](CO)CC(C)C` [O=C(N[C@H](CC(C)C)CO)/C(NC(C1=CC=C([N+]([O-])=O) C=C1)=O)=C(Br)\C2=CC=CC=C2OC] gave a CC50 of 86.6 µM.
`O=C(N[C@H](CO)Cc1ccccc1)/C(=C\c1ccc(Br)cc1)NC(=O)c1ccccc1` [O=C(N[C@H](CO)CC1=CC=CC=C1)/C (NC(C2=CC=CC=C2)=O)=C\C3=CC=C(Br)C=C3] showed a CC50 of 72.7 µM.
For `O=C(N[C@H](CO)Cc1ccccc1)/C(=C\c1ccccc1)NC(=O)c1ccccc1F` [O=C(N[C@H](CO)CC1=CC=CC=C1)/C(NC(C2=C(F) C=CC=C2)=O)=C\C3=CC=CC=C3], the CC50 was > 100 µM.
With `Cc1cccc(/C=C(/NC(=O)c2ccccc2)C(=O)N[C@H](CO)Cc2ccccc2)c1` [O=C(N[C@H](CO)CC1=CC=CC=C1)/C(NC(C2=CC=CC=C2) =O)=C\C3=CC=CC(C)=C3] the CC50 was > 100 µM.
In the case of `O=C(N[C@H](CO)Cc1ccccc1)/C(=C\c1ccccc1Cl)NC(=O)c1ccccc1` [O=C(N[C@H](CO)CC1=CC=CC=C1)/C(NC(C2=CC=CC=C2)=O) =C\C3=CC=CC=C3Cl], the CC50 is reported as > 100 µM.
